According to patent US20060073216A1, “Compositions and methods for control of bovine mastitis” (Solution Biosciences, Inc., priority 2002, published 2006):

Assay: Solubility in water
Assay type: physicochemical
Settings: water at 75° F. (ca. 24° C.), expressed as Cl2

For `CC1(C)C(=O)N(Cl)C(=O)N1Br` [N,N′-bromochloro-5,5-dimethylhydantoin], the solubility in water was “about 890 ppm”.

In the case of `CC1(C)C(=O)N(Br)C(=O)N1Br` [1,3-dibromo-5,5dimethylhydantoin, 1,3-dibromo-5,5-dimethylhydantoin], the solubility in water is reported as “about 405 ppm”.
